The target in the experiment is T1, Solute carrier family 12 member 5 (Homo sapiens, UniProt Q9H2X9).
T1 sequence (Q9H2X9 whole entry): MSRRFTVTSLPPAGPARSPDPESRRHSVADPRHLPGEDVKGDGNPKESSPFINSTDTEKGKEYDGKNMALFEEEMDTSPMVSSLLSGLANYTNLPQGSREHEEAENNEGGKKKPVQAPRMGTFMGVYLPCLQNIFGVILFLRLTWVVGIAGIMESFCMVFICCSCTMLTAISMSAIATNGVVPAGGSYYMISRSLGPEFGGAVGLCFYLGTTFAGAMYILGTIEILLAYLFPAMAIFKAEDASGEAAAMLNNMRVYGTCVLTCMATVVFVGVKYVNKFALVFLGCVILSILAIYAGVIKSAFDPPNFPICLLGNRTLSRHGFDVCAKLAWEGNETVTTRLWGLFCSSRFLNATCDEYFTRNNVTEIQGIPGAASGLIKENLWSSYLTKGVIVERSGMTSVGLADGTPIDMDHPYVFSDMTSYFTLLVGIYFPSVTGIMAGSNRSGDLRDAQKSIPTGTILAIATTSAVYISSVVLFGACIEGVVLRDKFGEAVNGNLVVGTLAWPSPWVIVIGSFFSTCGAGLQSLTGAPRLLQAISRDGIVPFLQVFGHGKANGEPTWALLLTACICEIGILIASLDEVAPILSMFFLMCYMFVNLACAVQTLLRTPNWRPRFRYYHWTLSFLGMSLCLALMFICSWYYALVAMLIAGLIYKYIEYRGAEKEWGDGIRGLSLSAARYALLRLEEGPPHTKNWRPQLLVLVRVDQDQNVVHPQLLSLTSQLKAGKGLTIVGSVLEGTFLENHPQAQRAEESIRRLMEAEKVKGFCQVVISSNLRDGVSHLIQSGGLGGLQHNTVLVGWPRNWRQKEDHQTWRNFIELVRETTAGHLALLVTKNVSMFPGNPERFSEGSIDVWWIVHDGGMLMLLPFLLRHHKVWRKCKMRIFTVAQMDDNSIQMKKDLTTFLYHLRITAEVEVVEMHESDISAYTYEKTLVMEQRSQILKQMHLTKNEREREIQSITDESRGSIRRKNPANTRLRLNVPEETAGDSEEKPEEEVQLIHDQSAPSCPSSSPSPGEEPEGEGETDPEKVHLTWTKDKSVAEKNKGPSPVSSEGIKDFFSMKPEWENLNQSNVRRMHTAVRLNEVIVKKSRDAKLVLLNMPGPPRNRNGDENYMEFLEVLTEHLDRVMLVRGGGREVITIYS
The experiment in a line: KCC2 modulator potency by thallium flux, dose response, cell-based, HEK293 KCC2, FluoZin-2 fluorescence (AID 1736).

The mark [1] stands for this setting: inactive by the depositor's call.

This passage reports EC50 results from BindingDB's records for doi:10.7270/Q2Q52N1X (Vanderbilt Screening Center for GPCRs, Ion Channels and …, 2009).

SMILES strings stand for the structures.

As for `CCN(CC)c1ccc2c(C)c(-c3ccc(N)cc3)c(=O)oc2c1` [3-(4-aminophenyl)-7-(diethylamino)-4-methyl-1-benzopyran-2-one], the EC50 was determined as 1.08 µM.

Regarding `Cc1ccc(C=Nn2c(-c3ccc(Cl)cc3)n[nH]c2=S)s1` [3-(4-chlorophenyl)-4-[(5-methyl-2-thiophenyl)methylideneamino]-1H-1,2,4-triazole-5-thione], the EC50 under setting [1] was determined as 188 µM.

`CCOc1ccc(C(CC(=O)O)NC(=O)C(Sc2ccccc2)c2ccccc2)cc1` (centres undefined) [3-(4-ethoxyphenyl)-3-[(2-phenyl-2-phenylsulfanyl-ethanoyl)amino]propanoic acid] registered an EC50 of 13.6 µM.

Molecule `CS/C(=N\Cc1ccc(F)cc1)NS(=O)(=O)c1cccs1` [3-(4-fluorobenzyl)-2-methyl-1-(2-thienylsulfonyl)isothiourea] gave an EC50 of 0.89 µM.

In the case of `O=C(Cn1cnc2c(nnn2Cc2ccc(F)cc2)c1=O)N1CCN(c2ccccc2)CC1` [3-(4-fluorobenzyl)-6-[2-keto-2-(4-phenylpiperazino)ethyl]triazolo[4,5-d]pyrimidin-7-one], a half-maximal effect (EC50) was put at 8.12 µM.

In turn, `Cc1ccc(OCCC(=O)OCC(=O)N2c3ccccc3CC2C)cc1` (centres undefined) [3-(4-methylphenoxy)propanoic acid [2-(2-methyl-2,3-dihydroindol-1-yl)-2-oxoethyl] ester] displayed an EC50 of 4.4 µM.

As for `CC(NC(=O)CCc1nnc(-c2ccc(-c3ccccc3)cc2)o1)c1nccs1` (centres undefined) [3-(5-biphenyl-4-yl-1,3,4-oxadiazol-2-yl)-N-[1-(1,3-thiazol-2-yl)ethyl]propanamide], the EC50 is 4.79 µM.

Turning to `COc1cc(OC)c(C2=NOC(C(=O)NCCc3ccccc3)C2)cc1Cl` (centres undefined) [3-(5-chloranyl-2,4-dimethoxy-phenyl)-N-(2-phenylethyl)-4,5-dihydro-1,2-oxazole-5-carboxamide], the midpoint of the response, the EC50, lay at 6.25 µM.

On to `CCOc1ccc2nc(Sc3cc(O)n(-c4cccc(OC)c4)c3O)sc2c1` [3-(6-Ethoxy-benzothiazol-2-ylsulfanyl)-1-(3-methoxy-phenyl)-pyrrolidine-2,5-dione], for which a half-maximal response (EC50) required 9.38 µM.

Regarding `COC(=O)c1sccc1NC(=S)OC` [3-(methoxycarbothioylamino)thiophene-2-carboxylic acid methyl ester], the EC50 was 3.94 µM.

Regarding `O=C(Nc1ccc(Cc2ccncc2)cc1)c1cccc([N+](=O)[O-])c1` [3-Nitro-N-(4-pyridin-4-ylmethyl-phenyl)-benzamide], a half-maximal response (EC50) required 9.28 µM.

For the molecule `O=C(O)CCn1c(SCc2cccc3ccccc23)nc2ccccc21` [3-[2-(1-naphthalenylmethylthio)-1-benzimidazolyl]propanoic acid], a half-maximal effect (EC50) was put at 0.619 µM.

As for `Cc1cc(Cl)ccc1Oc1ccccc1C(=O)CC#N` [3-[2-(4-chloranyl-2-methyl-phenoxy)phenyl]-3-oxidanylidene-propanenitrile], under setting [1], a half-maximal response (EC50) required 233 µM.

Molecule `O=C(Cn1nnc2c(cnn2-c2ccccc2)c1=O)N1CCN(c2ccccc2F)CC1` [3-[2-[4-(2-fluorophenyl)-1-piperazinyl]-2-oxoethyl]-7-phenyl-4-pyrazolo[3,4-d]triazinone] gave an EC50 of 15.6 µM.

`O=C(O)CCc1cc(I)c(Oc2ccc(O)c(I)c2)c(I)c1` [3-[4-(4-hydroxy-3-iodophenoxy)-3,5-diiodophenyl]propanoic acid] showed an EC50 of 11.1 µM.

For the molecule `O=C(O)CCN(Cc1ccccc1)S(=O)(=O)c1c(Cl)cccc1Cl` [3-[(2,6-dichlorophenyl)sulfonyl-(phenylmethyl)amino]propanoic acid], the midpoint of the response, the EC50, lay at 53.1 µM.

In the case of `Cc1ccc(S(=O)(=O)N(CCC(=O)O)Cc2ccc(Cl)cc2)cc1` [3-[(4-chlorobenzyl)-tosyl-amino]propionic acid], the response was half-maximal at 0.356 µM (EC50).

On to `COc1ccc(S(=O)(=O)N(CCC(=O)O)Cc2ccccc2)cc1` [3-[(4-methoxyphenyl)sulfonyl-(phenylmethyl)amino]propanoic acid], for which a half-maximal effect under setting [1] (EC50) was put at 6.36 µM.

`O=C(OCC(=O)N1CCN(C(=O)c2ccco2)CC1)c1sc2ccccc2c1Cl` [3-chloro-1-benzothiophene-2-carboxylic acid [2-[4-[2-furanyl(oxo)methyl]-1-piperazinyl]-2-oxoethyl] ester] registered an EC50 of 0.599 µM.
